Data reported in patent US12227509B2, “Dihydropyrazolopyrazinone derivative having MGAT2 inhibitory activity” (Shionogi & Co., Ltd., priority 2019, dated 2025).

Target: recombinant human MGAT2 (Homo sapiens (Human), UniProt Q3SYC2)
Assay: Measurement of human MGAT2 inhibitory activity
Format: biochemical
Conditions: concentration exhibiting 50% enzyme inhibition; recombinant human MGAT2, 2-Oleoylglycerol/Oleoyl-CoA
Procedure: A full-length human MGAT2 gene to which a Flag-tag had been added at the N-terminal was inserted into pFastBac (from Invitrogen). A recombinant baculovirus was produced in accordance with the protocol for a Bac-to-Bac baculovirus expression system (produced by Invitrogen), and Sf-9 cells were infected therewith. The cells were collected and sonicated, and then the membrane fraction was collected through centrifugation. Western blotting analysis with an anti-Flag antibody was performed for the membrane fraction to confirm expression, and the membrane fraction was used as a recombinant human MGAT2 enzyme solution.
Solutions of the compounds of the present invention in DMSO were each aliquoted into 0.2-μL portions in a 384-well polystyrene microplate produced by Corning Incorporated, and 5 μL of an enzyme solution prepared with an assay buffer (100 mmol/L phosphate buffer (pH 7.4) containing 2 mmol/L DTT) and 5 μL of a substrate solution (100 mmol/L phosphate buffer (pH 7.4), 30 μmol/L 2-Oleoylglycerol, 10 μmol/L Oleoyl-CoA) were added thereto, and the resultant was stirred and centrifuged, and incubated in a moist chamber at room temperature for 1 hour. After enzymatic reaction, 50 μL of a quenching solution (containing 0.2 μmol/L Diolein-d5, 0.4% formic acid, and 50% isopropanol) containing Internal Standard (IS) was added to terminate the reaction, and the resultant was sealed in a plate produced by Shimadzu GLC Ltd., and then stirred and centrifuged, and measurement was performed by using an electrospray ionization method with a RapidFire360 and Agilent 6550 Q-TOF mass spectrometer. Diolein as a reaction product (P) of 2-Oleoylglycerol as the substrate and an ammonium adduct ion of the IS were detected, and the peak intensity ratio, P/IS, was calculated from the peak heights to evaluate the inhibitory activity. Inhibitory activities with/without addition of enzyme were defined as Control (+)/Control (−), respectively, and the respective % inhibitions were defined as 0% inhibition and 100% inhibition. The inhibitory activity was calculated from formula below with TIBCO Spotfire (produced by TIBCO Software Inc.)
Inhibitory activity (%)=[1−{Sample−Control (−)}/{Control (+)−Control (−)}]*100 where Sample indicates a peak intensity ratio: P/IS, when the compound of the present invention was added.

recombinant human MGAT2, sequence (Q3SYC2 whole entry): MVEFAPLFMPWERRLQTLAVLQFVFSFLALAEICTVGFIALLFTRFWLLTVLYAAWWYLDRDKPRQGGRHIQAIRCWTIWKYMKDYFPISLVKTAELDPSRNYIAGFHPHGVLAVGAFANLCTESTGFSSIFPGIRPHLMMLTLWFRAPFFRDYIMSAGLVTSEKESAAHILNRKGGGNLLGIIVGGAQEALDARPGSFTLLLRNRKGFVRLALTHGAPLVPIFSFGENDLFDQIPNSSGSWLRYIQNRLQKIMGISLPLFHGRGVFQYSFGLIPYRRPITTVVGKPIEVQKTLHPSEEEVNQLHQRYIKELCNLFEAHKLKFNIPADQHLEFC

Row | Compound | IC50
1 | N#Cc1ccc(-c2nn3c(c2NC(=O)c2ccno2)C(=O)N[C@@]2(CCc4cc(OCC(F)(F)F)ccc42)C3)nc1 [Compound I-13] | 1.93 nM
2 | CS(=O)(=O)CC(=O)Nc1c(-c2ccc(F)cc2)nn2c1C(=O)NC1(CN(c3ccc(C(F)(F)F)cc3)C1)C2 [Compound I-61] | 1.41 nM
3 | CCS(=O)(=O)CC(=O)Nc1c(-c2ccc(F)cn2)nn2c1C(=O)N[C@@]1(CCOc3cc(F)cc(F)c31)C2 [Compound I-118] | 3.76 nM
4 | N#Cc1ccc(-c2nn3c(c2NC(=O)C2CS(=O)(=O)C2)C(=O)N[C@@]2(CCc4cc(OCC(F)(F)F)ccc42)C3)nc1 [Compound I-15] | 2.56 nM
5 | CCCCCc1nn2c(c1NC(=O)CS(C)(=O)=O)C(=O)N[C@@]1(CCOc3cc(OCC(F)(F)F)ccc31)C2 [Compound I-113] | 1.58 nM
6 | COc1ccc(-c2nn3c(c2NC(=O)CS(C)(=O)=O)C(=O)N[C@@]2(CCc4cc(OCC(F)(F)F)ccc42)C3)cc1F [Compound I-52] | 15.2 nM
7 | Cc1ccc(-c2nn3c(c2NC(=O)CS(C)(=O)=O)C(=O)NC2(CN(c4ccc(C(F)(F)F)cc4)C2)C3)nc1 [Compound I-65] | 0.935 nM
8 | CS(=O)(=O)CC(=O)Nc1c(CCC2CC2)nn2c1C(=O)N[C@]1(CCOc3cc(OCC(F)(F)F)ccc31)C2 [Compound I-110] | 2.14 nM
9 | CS(=O)(=O)CC(=O)Nc1c(-c2ccc(F)cn2)nn2c1C(=O)N[C@]1(CCOc3cc(F)cc(F)c31)C2 [Compound I-150] | 11.3 nM
10 | CCCCCc1nn2c(c1NC(=O)CS(C)(=O)=O)C(=O)N[C@@]1(CCc3cc(OCC)ccc31)C2 [Compound I-104] | 24.7 nM
11 | CCOc1ccc2c(c1)OCC[C@@]21Cn2nc(-c3ccc(F)cc3)c(NC(=O)CS(C)(=O)=O)c2C(=O)N1 [Compound I-134] | 4.49 nM
12 | CS(=O)(=O)CC(=O)Nc1c(-c2ccc(F)c(F)c2)nn2c1C(=O)N[C@]1(CCc3cc(OCC(F)(F)F)ccc31)C2 [Compound I-89] | 0.761 nM
13 | Cc1cc(-c2nn3c(c2NC(=O)CS(C)(=O)=O)C(=O)N[C@]2(CCc4cc(OCC(F)(F)F)ccc42)C3)ccc1F [Compound I-88] | 1.17 nM
14 | CS(=O)(=O)CC(=O)Nc1c(-c2ccc(OC(F)F)cc2)nn2c1C(=O)N[C@@]1(CCc3cc(OCC(F)(F)F)ccc31)C2 [Compound I-28] | 3.89 nM
15 | Cc1cccc(-c2nn3c(c2NC(=O)CS(C)(=O)=O)C(=O)N[C@]2(CCc4cc(OCC(F)(F)F)ccc42)C3)c1 [Compound I-77] | 2.54 nM
16 | Cc1ccccc1-c1nn2c(c1NC(=O)CS(C)(=O)=O)C(=O)N[C@]1(CCc3cc(OCC(F)(F)F)ccc31)C2 [Compound I-78] | 88.3 nM
17 | N#Cc1ccc(-c2nn3c(c2NC(=O)C2CS(=O)(=O)C2)C(=O)N[C@]2(CCc4cc(OCC(F)(F)F)ccc42)C3)nc1 [Compound I-10] | 1.91 nM

Row | Compound | IC50
18 | Cc1ccc(-c2nn3c(c2NC(=O)CS(C)(=O)=O)C(=O)N[C@]2(CCc4cc(OCC(F)(F)F)ccc42)C3)nc1 [Compound I-5] | 2.81 nM
19 | CS(=O)(=O)CC(=O)Nc1c(CCC2CC2)nn2c1C(=O)N[C@@]1(CCOc3cc(OCC(F)(F)F)ccc31)C2 [Compound I-109] | 1.18 nM
20 | CS(=O)(=O)CC(=O)Nc1c(-c2ccc(C(F)F)cc2)nn2c1C(=O)N[C@@]1(CCc3cc(F)cc(F)c31)C2 [Compound I-131] | 9.33 nM
21 | CS(=O)(=O)CC(=O)Nc1c(-c2ccc(F)cc2)nn2c1C(=O)N[C@]1(CCOc3cc(OCC(F)(F)F)ccc31)C2 [Compound I-70] | 2.6 nM
22 | CS(=O)(=O)CC(=O)Nc1c(-c2ccc(OC(F)(F)F)cc2)nn2c1C(=O)N[C@@]1(CCc3cc(OCC(F)(F)F)ccc31)C2 [Compound I-27] | 7.01 nM
23 | COc1ccc(-c2nn3c(c2NC(=O)CS(C)(=O)=O)C(=O)N[C@]2(CCc4cc(OCC(F)(F)F)ccc42)C3)cc1 [Compound I-82] | 6.51 nM
24 | CS(=O)(=O)CC(=O)Nc1c(CCC2CC2)nn2c1C(=O)N[C@]1(CCc3cc(OCC(F)(F)F)ccc31)C2 [Compound I-94] | 1.08 nM
25 | CCOc1ccc2c(c1)OCC[C@@]21Cn2nc(-c3ccc(F)c(F)c3)c(NC(=O)CS(C)(=O)=O)c2C(=O)N1 [Compound I-135] | 3.22 nM
26 | C[S@](=N)(=O)CC(=O)Nc1c(-c2ccc(F)c(Cl)c2)nn2c1C(=O)N[C@@]1(CCc3cc(OCC(F)(F)F)ccc31)C2 (single isomer, unassigned) [Compound I-107] | 1.19 nM
27 | CS(=O)(=O)CC(=O)Nc1c(-c2ccc(OC3CC3)cc2)nn2c1C(=O)N[C@@]1(CCc3cc(OCC(F)(F)F)ccc31)C2 [Compound I-30] | 193 nM
28 | CS(=O)(=O)CC(=O)Nc1c(-c2ccc(S(C)(=O)=O)cc2)nn2c1C(=O)N[C@@]1(CCc3cc(OCC(F)(F)F)ccc31)C2 [Compound I-48] | 419 nM
29 | CCOc1ccc2c(c1)CC[C@@]21Cn2nc(CCC3CC3)c(NC(=O)CS(C)(=O)=O)c2C(=O)N1 [Compound I-111] | 7.61 nM
30 | CC(C)c1ccc(-c2nn3c(c2NC(=O)CS(C)(=O)=O)C(=O)N[C@@]2(CCc4cc(OCC(F)(F)F)ccc42)C3)cc1 [Compound I-49] | 4.79 nM
31 | CS(=O)(=O)CC(=O)Nc1c(-c2ccc(Cl)c(F)c2)nn2c1C(=O)N[C@@]1(CCOc3cc(F)cc(F)c31)C2 [Compound I-144] | 1.4 nM
32 | Cc1ccc(-c2nn3c(c2NC(=O)CS(C)(=O)=O)C(=O)N[C@@]2(CCc4cc(OCCCC(F)(F)F)ccc42)C3)nc1 [Compound I-74] | 1.06 nM
33 | Cc1ccc(-c2nn3c(c2NC(=O)CS(C)(=O)=O)C(=O)N[C@]2(CCc4cc(OCC(F)(F)F)ccc42)C3)cc1 [Compound I-76] | 1.94 nM
34 | N#Cc1ccc(-c2nn3c(c2NC(=O)COC(F)(F)F)C(=O)N[C@@]2(CCc4cc(OCC(F)(F)F)ccc42)C3)nc1 [Compound I-17] | 58 nM

Test system: not listed separately
Assay: Metabolism stability test (human liver microsomes)
Format: in vitro ADME
Conditions: compound concentration 0.5 μmol/L, 37° C., 30 minutes, NADPH
Procedure: Using commercially available pooled human hepatic microsomes, the compound of the present invention was reacted for a constant time, a remaining rate was calculated by comparing a reacted sample and an unreacted sample, thereby, a degree of metabolism of the compound of the present invention in liver was assessed.
A reaction was performed (oxidative reaction) at 37° C. for 0 minute or 30 minutes in the presence of 1 mmol/L NADPH in 0.2 mL of a buffer (50 mmol/L Tris-HCl pH 7.4, 150 mmol/L potassium chloride, 10 mmol/L magnesium chloride) containing 0.5 mg protein/mL of human liver microsomes. After the reaction, 50 μL of the reaction solution was added to 100 μL of a methanol/acetonitrile=1/1 (v/v) solution, mixed and centrifuged at 3000 rpm for 15 minutes. The compound of the present invention in the supernatant was quantified by LC/MS/MS, and a remaining amount of the compound of the present invention after the reaction was calculated, letting a compound amount at 0 minute reaction time to be 100%.

Row | Compound | Remaining rate
35 | CS(=O)(=O)CC(=O)Nc1c(-c2ccc(F)cc2)nn2c1C(=O)N[C@]1(CCc3cc(OCC(F)(F)F)ccc31)C2 [Compound I-79] | 77.2%
36 | N#Cc1ccc(-c2nn3c(c2NC(=O)c2ccno2)C(=O)N[C@@]2(CCc4cc(OCC(F)(F)F)ccc42)C3)nc1 [Compound I-13] | 76%
37 | CS(=O)(=O)CC(=O)Nc1c(-c2ccc(F)cc2)nn2c1C(=O)NC1(CN(c3ccc(C(F)(F)F)cc3)C1)C2 [Compound I-61] | 95.6%

Test system: not listed separately
Assay: Solubility test (1% DMSO addition, pH 6.8 artificial intestinal juice)
Format: physicochemical
Conditions: kinetic from dmso stock, 16 hours at 25° C.
Procedure: The solubility of the compound of the present invention was determined under 1% DMSO addition conditions. 10 mmol/L solution of the compound was prepared with DMSO, and 6 μL of the solution of the compound of the present invention was added to 594 μL of pH 6.8 artificial intestinal juice (118 mL of 0.2 mol/L NaOH test solution and water were added to 250 mL of 0.2 mol/L potassium dihydrogen phosphate test solution to reach 1000 mL). The mixture was left standing for 16 hours at 25° C., and the mixture was vacuum-filtered. The filtrate was two-fold diluted with methanol/water=1/1 (V/V), and the compound concentration in the filtrate was measured with HPLC or LC/MS/MS by the absolute calibration method. The dilution concentration and the dilution solvent were changed as necessary.

Row | Compound | solubility at 16 h
38 | CS(=O)(=O)CC(=O)Nc1c(-c2ccc(F)cc2)nn2c1C(=O)N[C@]1(CCc3cc(OCC(F)(F)F)ccc31)C2 [Compound I-79] | > 50 µM

Target: hERG (IKr) (Homo sapiens (Human), UniProt Q12809)
Assay: hERG test
Format: cell-based
Conditions: CHO cells expressing hERG channel, pH 7.4, 10 μmol/L of test compound, read-out: % inhibition of hERG tail peak current (IKr)
From the text: For the purpose of assessing risk of an electrocardiogram QT interval prolongation of the compound of the present invention, effects of the compound of the present invention on delayed rectifier K^+ current (IKr), which plays an important role in the ventricular repolarization process, was studied using CHO cells expressing human ether-a-go-go related gene (hERG) channel.
After a cell was retained at a membrane potential of −80 mV by whole cell patch clamp method using an automated patch clamp system (QPatch; Sophion BIoscience A/S), IKr induced by application of a leak potential of −50 mV followed by depolarization pulse stimulation at +20 mV for 2 seconds and, further, repolarization pulse stimulation at −50 mV for 2 seconds, was recorded. […] From the recording IKr, an absolute value of the tail peak current was measured based on the current value at the resting membrane potential using analysis software (Falster Patch; Sophion Bioscience A/S). Further, the % inhibition of tail peak current for the compound of the present invention relative to the tail peak current after application of the vehicle is calculated to assess influence of the compound of the present invention on IKr.

hERG (IKr), sequence (Q12809 whole entry): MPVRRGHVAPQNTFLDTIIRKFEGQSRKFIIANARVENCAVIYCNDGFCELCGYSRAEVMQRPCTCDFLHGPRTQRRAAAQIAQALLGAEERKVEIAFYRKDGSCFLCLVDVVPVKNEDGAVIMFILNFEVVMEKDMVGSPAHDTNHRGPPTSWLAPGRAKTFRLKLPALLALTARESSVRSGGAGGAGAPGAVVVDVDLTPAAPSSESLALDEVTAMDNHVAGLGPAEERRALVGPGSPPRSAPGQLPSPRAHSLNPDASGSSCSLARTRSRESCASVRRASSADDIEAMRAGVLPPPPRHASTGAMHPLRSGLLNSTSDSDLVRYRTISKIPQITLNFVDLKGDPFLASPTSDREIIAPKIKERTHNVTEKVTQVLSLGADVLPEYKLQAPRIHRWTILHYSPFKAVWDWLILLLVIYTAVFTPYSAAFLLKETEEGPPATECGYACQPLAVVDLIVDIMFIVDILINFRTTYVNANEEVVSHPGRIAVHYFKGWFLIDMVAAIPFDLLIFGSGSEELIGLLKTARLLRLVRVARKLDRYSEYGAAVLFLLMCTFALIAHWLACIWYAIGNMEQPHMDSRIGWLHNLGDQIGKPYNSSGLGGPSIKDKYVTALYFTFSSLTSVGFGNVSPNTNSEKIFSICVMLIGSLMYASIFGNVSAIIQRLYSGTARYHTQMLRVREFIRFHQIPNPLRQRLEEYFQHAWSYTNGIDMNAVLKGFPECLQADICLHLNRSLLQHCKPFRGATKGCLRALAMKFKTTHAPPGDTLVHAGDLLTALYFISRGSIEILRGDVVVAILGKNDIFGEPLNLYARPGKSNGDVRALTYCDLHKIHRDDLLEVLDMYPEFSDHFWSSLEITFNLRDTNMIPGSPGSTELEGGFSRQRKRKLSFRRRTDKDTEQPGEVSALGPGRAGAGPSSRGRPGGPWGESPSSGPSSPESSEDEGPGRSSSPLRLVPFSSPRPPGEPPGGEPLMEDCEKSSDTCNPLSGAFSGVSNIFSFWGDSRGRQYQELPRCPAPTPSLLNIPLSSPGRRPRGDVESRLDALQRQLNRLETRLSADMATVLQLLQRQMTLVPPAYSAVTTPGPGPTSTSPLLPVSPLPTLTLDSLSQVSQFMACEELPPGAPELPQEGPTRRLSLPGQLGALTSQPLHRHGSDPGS

Row | Compound | inhibition at 10 min, 10 μmol/L
39 | CS(=O)(=O)CC(=O)Nc1c(-c2ccc(F)cc2)nn2c1C(=O)N[C@]1(CCc3cc(OCC(F)(F)F)ccc31)C2 [Compound I-79] | 25.5%
